# Laboratory results as given in PubChem BioAssay AID264 (DTP/NCI, 2004).
# Several values for one entry are separate records, joined by “and”; a condition that tells them apart may be missing. Equal entries are not always repeated. Inconclusive results are not listed.
# Tested on: nude mice, LX-1 lung xenograft intrarenal, tumor weight T/C
# Assay: NCI In Vivo Anticancer Drug Screen. Data for tumor model Human Lung LX-1 Xenograft (intrarenal inoculation) in NU/NU Swiss (nude) mice
# Settings: endpoint: mean tumor weight change, higher = larger tumour
# How it was run: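 Antitumor effect is expressed as a ratio: the mean tumor measurement of the drug-treated group relative to that of the vehicle-dosed control group.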
# [1] = dose: 300.0 mg/kg/injection, schedule: Q04DX003 (sc), vehicle: saline with Tween-80
# [2] = dose: 600.0 mg/kg/injection, schedule: Q04DX003 (sc), vehicle: saline with Tween-80
# [3] = dose: 1200.0 mg/kg/injection, schedule: Q04DX003 (sc), vehicle: saline with Tween-80
# [4] = dose: 2400.0 mg/kg/injection, schedule: Q04DX003 (sc), vehicle: saline with Tween-80
# [5] = dose: 25.0 mg/kg/injection, schedule: Q04DX003 (sc), vehicle: saline
# [6] = dose: 50.0 mg/kg/injection, schedule: Q04DX003 (sc), vehicle: saline
# [7] = dose: 75.0 mg/kg/injection, schedule: Q04DX003 (sc), vehicle: saline with Tween-80
# [8] = dose: 150.0 mg/kg/injection, schedule: Q04DX003 (sc), vehicle: saline with Tween-80
# [9] = dose: 12.5 mg/kg/injection, schedule: Q01DX010 (sc), vehicle: saline
structure (smiles),measurement,setting,value
NCC1CCC(C(=O)O)CC1 (stereo not given),T/C,[1],167 % of control
same,T/C,[2],104 % of control
same,T/C,[3],75 % of control
same,T/C,[4],79 % of control
O=C1C=C2C(=CCOC2O)O1 (stereo not given),T/C,"dose: 1.0 mg/kg/injection, schedule: Q04DX003 (sc), vehicle: Klucel (hydroxypropylcellulose) (HPC)",158 % of control
same,T/C,"dose: 2.0 mg/kg/injection, schedule: Q04DX003 (sc), vehicle: Klucel (hydroxypropylcellulose) (HPC)",92 % of control
same,T/C,"dose: 8.0 mg/kg/injection, schedule: Q04DX003 (sc), vehicle: Klucel (hydroxypropylcellulose) (HPC)",151 % of control
CC(C)(C)N1CC1CNC(=O)C(=O)NCC1CN1C(C)(C)C (stereo not given),T/C,"dose: 6.25 mg/kg/injection, schedule: Q04DX003 (sc), vehicle: saline with Tween-80",87 % of control
same,T/C,"dose: 12.5 mg/kg/injection, schedule: Q04DX003 (sc), vehicle: saline with Tween-80",76 % of control
same,T/C,"dose: 25.0 mg/kg/injection, schedule: Q04DX003 (sc), vehicle: saline with Tween-80",70 % of control
COc1cccc2c1C(=O)c1c(O)c3c(c(O)c1C2=O)C[C@@](O)(/C(C)=N\O)C[C@@H]3OC1CC(N)C(O)C(C)O1 (stereo not given in full),T/C,[5],95 % of control
same,T/C,[6],76 % of control
O=c1cc(-c2ccccc2)[nH]c2c1CCCC2,T/C,[1],114 % of control
same,T/C,[2],113 % of control
same,T/C,[3],113 % of control
same,T/C,[4],106 % of control
CN(Cc1cnc2nc(N)nc(N)c2n1)c1c(Cl)cc(C(=O)NC(CCC(=O)O)C(=O)O)cc1Cl (stereo not given),T/C,"dose: 12.5 mg/kg/injection, schedule: Q01DX010 (sc), vehicle: Klucel (hydroxypropylcellulose) (HPC)",73 % of control
same,T/C,"dose: 25.0 mg/kg/injection, schedule: Q01DX010 (sc), vehicle: Klucel (hydroxypropylcellulose) (HPC)",48 % of control
same,T/C,"dose: 50.0 mg/kg/injection, schedule: Q01DX010 (sc), vehicle: Klucel (hydroxypropylcellulose) (HPC)",45 % of control
CCC[CH2][Hg][Cl],T/C,"dose: 18.75 mg/kg/injection, schedule: Q04DX003 (sc), vehicle: Klucel (hydroxypropylcellulose) (HPC)",69 % of control
same,T/C,"dose: 37.5 mg/kg/injection, schedule: Q04DX003 (sc), vehicle: Klucel (hydroxypropylcellulose) (HPC)",53 % of control
CCCCCCCCCCCCCCCCP(=O)(OCCOCCCCCC)OCCOCCCCCC,T/C,"dose: 75.0 mg/kg/injection, schedule: Q04DX003 (sc), vehicle: saline",114 % of control
same,T/C,"dose: 150.0 mg/kg/injection, schedule: Q04DX003 (sc), vehicle: saline",91 % of control
same,T/C,"dose: 300.0 mg/kg/injection, schedule: Q04DX003 (sc), vehicle: saline",92 % of control
OCCN1CCN(CC/C=C2/c3ccccc3Sc3ccc(Cl)cc32)CC1,T/C,"dose: 6.25 mg/kg/injection, schedule: Q04DX003 (sc), vehicle: saline",78 % of control
same,T/C,"dose: 12.5 mg/kg/injection, schedule: Q04DX003 (sc), vehicle: saline",68 % of control
same,T/C,[5],52 % of control
same,T/C,[6],43 % of control
C[Si](C)(CCl)N[Si](C)(C)CCl,T/C,[3],81 % of control
CC1=C(/C=C/C(C)=C/C=C/C(C)=C/C=O)C(C)(C)CCC1,T/C,[7],94 % of control
same,T/C,[8],68 % of control
same,T/C,[1],56 % of control and 74 % of control
same,T/C,[3],57 % of control
COc1ccc2c(c1)CCn1c(C)c(COC(=O)NC(C)C)c(COC(=O)NC(C)C)c1-2,T/C,"dose: 37.5 mg/kg/injection, schedule: Q04DX003 (sc), vehicle: distilled water + Tween-80",65 % of control
same,T/C,"dose: 75.0 mg/kg/injection, schedule: Q04DX003 (sc), vehicle: distilled water + Tween-80",64 % of control
same,T/C,"dose: 150.0 mg/kg/injection, schedule: Q04DX003 (sc), vehicle: distilled water + Tween-80",55 % of control
same,T/C,"dose: 300.0 mg/kg/injection, schedule: Q04DX003 (sc), vehicle: distilled water + Tween-80",63 % of control
CCC/C=C/C=C/C(=O)OC1/C(=C/C(=O)OC)CC2CC(C(C)O)OC(=O)CC(O)CC3CC(OC(C)=O)C(C)(C)C(O)(CC4C/C(=C/C(=O)OC)CC(/C=C/C(C)(C)C1(O)O2)O4)O3 (stereo not given),T/C,"dose: 0.25 mg/kg/injection, schedule: Q04DX003 (sc), vehicle: saline + alcohol",112 % of control
same,T/C,"dose: 0.5 mg/kg/injection, schedule: Q04DX003 (sc), vehicle: saline + alcohol",96 % of control
same,T/C,"dose: 1.0 mg/kg/injection, schedule: Q04DX003 (ip), vehicle: saline + alcohol",96 % of control
same,T/C,"dose: 1.0 mg/kg/injection, schedule: Q04DX003 (sc), vehicle: saline + alcohol",59 % of control
same,T/C,"dose: 2.0 mg/kg/injection, schedule: Q04DX003 (ip), vehicle: saline + alcohol",119 % of control
same,T/C,"dose: 2.0 mg/kg/injection, schedule: Q04DX003 (sc), vehicle: saline + alcohol",27 % of control and 40 % of control
same,T/C,"dose: 4.0 mg/kg/injection, schedule: Q04DX003 (ip), vehicle: saline + alcohol",76 % of control
same,T/C,"dose: 8.0 mg/kg/injection, schedule: Q04DX003 (ip), vehicle: saline + alcohol",81 % of control
same,T/C,"dose: 8.0 mg/kg/injection, schedule: Q04DX003 (sc), vehicle: saline + alcohol",16 % of control
same,T/C,"dose: 10.0 mg/kg/injection, schedule: Q04DX003 (ip), vehicle: saline + alcohol",93 % of control
CCCCCCCC(=O)OCC(=O)[C@]1(O)Cc2c(O)c3c(c(O)c2[C@@H](OC2CC(N)C(O)C(C)O2)C1)C(=O)c1c(OC)cccc1C3=O (stereo not given in full),T/C,"dose: 2.0 mg/kg/injection, schedule: Q01DX010 (sc), vehicle: saline",104 % of control
same,T/C,"dose: 4.0 mg/kg/injection, schedule: Q01DX010 (sc), vehicle: saline",173 % of control
COc1ccc2c(c1)CCC(c1ccccc1)=C2c1ccc(OCCN2CCCC2)cc1,T/C,"dose: 100.0 mg/kg/injection, schedule: Q04DX003 (sc), vehicle: Klucel (hydroxypropylcellulose) (HPC)",116 % of control
same,T/C,"dose: 200.0 mg/kg/injection, schedule: Q04DX003 (sc), vehicle: Klucel (hydroxypropylcellulose) (HPC)",85 % of control
same,T/C,"dose: 400.0 mg/kg/injection, schedule: Q04DX003 (sc), vehicle: Klucel (hydroxypropylcellulose) (HPC)",57 % of control
same,T/C,"dose: 800.0 mg/kg/injection, schedule: Q04DX003 (sc), vehicle: Klucel (hydroxypropylcellulose) (HPC)",101 % of control
O=NN(CCCl)C(=O)Oc1ccc(OC(=O)N(CCCl)N=O)cc1,T/C,"dose: 300.0 mg/kg/injection, schedule: Q04DX003 (sc), vehicle: Klucel (hydroxypropylcellulose) (HPC)",110 % of control
same,T/C,"dose: 600.0 mg/kg/injection, schedule: Q04DX003 (sc), vehicle: Klucel (hydroxypropylcellulose) (HPC)",70 % of control
same,T/C,"dose: 1200.0 mg/kg/injection, schedule: Q04DX003 (sc), vehicle: Klucel (hydroxypropylcellulose) (HPC)",49 % of control
CC[C@@H](C)[C@@H]1NC(=O)C(NC(=O)C(CC(C)C)N(C)C(=O)C2CCCN2C(=O)C(C)O)C(C)OC(=O)C(Cc2ccc(OC)cc2)N(C)C(=O)C2CCCN2C(=O)C(CC(C)C)NC(=O)C(C)C(=O)C(C(C)C)OC(=O)C[C@H]1O (stereo not given in full),T/C,"dose: 75.0 micrograms/kg/injection, schedule: Q04DX003 (sc), vehicle: distilled water + alcohol",28 % of control
same,T/C,"dose: 600.0 micrograms/kg/injection, schedule: Q04DX003 (sc), vehicle: distilled water + alcohol",85 % of control and 87 % of control
same,T/C,"dose: 1200.0 micrograms/kg/injection, schedule: Q04DX003 (sc), vehicle: distilled water + alcohol",87 % of control
ClCc1ccc2ccccc2n1,T/C,[8],158 % of control
same,T/C,[1],105 % of control
same,T/C,[2],77 % of control
CN1CCN(CCCN2c3ccccc3Sc3ccc(C(F)(F)F)cc32)CC1,T/C,"dose: 6.25 mg/kg/injection, schedule: Q01DX010 (sc), vehicle: saline",97 % of control
same,T/C,[9],124 % of control
same,T/C,"dose: 100.0 mg/kg/injection, schedule: Q01DX010 (sc), vehicle: saline",63 % of control and 66 % of control and 87 % of control
same,T/C,"dose: 400.0 mg/kg/injection, schedule: Q01DX010 (sc), vehicle: saline",31 % of control
CNC(=O)n1c(N)nc(-c2ccccc2)c1-c1ccccc1,T/C,"dose: 37.5 mg/kg/injection, schedule: Q04DX003 (sc), vehicle: saline with Tween-80",114 % of control
same,T/C,[7],122 % of control
same,T/C,[8],57 % of control
CC1(C)N=C(N)N=C(N)N1c1ccc(F)c(C(F)(F)F)c1,T/C,"dose: 3.13 mg/kg/injection, schedule: Q01DX010 (sc), vehicle: saline",76 % of control
same,T/C,[9],118 % of control and 122 % of control
same,T/C,"dose: 25.0 mg/kg/injection, schedule: Q01DX010 (sc), vehicle: saline",33 % of control
O=C(NO)c1ccc(O)c(O)c1,T/C,"dose: 200.0 mg/kg/injection, schedule: Q04DX003 (sc), vehicle: distilled water + Tween-80",103 % of control
same,T/C,"dose: 400.0 mg/kg/injection, schedule: Q04DX003 (sc), vehicle: distilled water + Tween-80",74 % of control
same,T/C,"dose: 800.0 mg/kg/injection, schedule: Q04DX003 (sc), vehicle: distilled water + Tween-80",78 % of control
